The values that follow come from patent US10722886B2, “Apparatus for separating fine particles and separating method using same” (UNIVERSITY-INDUSTRY COOPERATION GROUP OF KYUNG HEE …, priority 2014, dated 2020).

This assay has as its system Jurkat cell. The assay can be described thus: Cytotoxicity experiment (LDH analysis) on Jurkat cells exposed to Triton X-100. Format: cell-based. The following applies: Jurkat cell exposed to Triton X-100 (0 to 0.1%) for 30 min in CO2 incubator; LDH in separated culture medium, absorbance at 490 nm. The procedure: After the cell treated using Triton X-100 according to the Example of the present invention was separated using the apparatus for separating the microparticles, the apparatus fastened to the 1 mL syringe, and the conventional centrifuge, the cytotoxicity (%) was measured from the collected cell culture medium.
Specifically, a Jurkat cell was cultured in RPMI (WELGENE Inc., Korea) suspended using a 10% FBS (WELGENE) and a 1% antibiotic solution containing penicillin and streptomycin (WELGENE). In order to visualize the flow of the cell, the cell was washed with DPBS (WELGENE) and then dyed using a 10 μM CFDA cell tracer (Invitrogen) at room temperature for 15 min. After the dyeing, the cell was washed twice with DPBS.
The Jurkat cell was exposed to Triton X-100 at various concentrations (0 to 0.1%) in a CO2 incubator for 30 min. Subsequently, the fluid from which the microparticles were separated was obtained using the apparatus for separating the microparticles, to which the syringe was fastened, according to the present invention (manual injection at room temperature for 3 min), and the centrifuge (at 1000 rpm and room temperature for 5 min). […] The lactate dehydrogenase (LDH) analysis was performed in accordance with the manufacturer's directions (#88953, Pierce, Rockford, Ill.), and the absorbance was then measured at 490 nm. […]

Triton X-100: the “IC50 value of Triton X-100 (cytotoxicity, LDH analysis)” value is given as 0.0076%.
